In patent US11000033B2, “Ketone or oxime compound, and herbicide” (NISSAN CHEMICAL CORPORATION, priority 2014, dated 2021):

How the values were obtained:
Assay type in all cases: in vivo
[1] = tested on: Digitaria ciliaris; assay: Test Example 5: herbicidal effect by foliage application, plastic box (symbol F); conditions: 320 g/ha, 3 weeks after application
Outline: (§1)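 After sowing into sterilized diluvial soil and growing two weeks under glass at 25° C. to 30° C., seedlings receive a uniform foliar spray of diluted emulsion. Damage is judged visually three weeks on.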

[2] = tested on: Lolium multiflorum Lam.; assay: Test Example 4: herbicidal effect by soil treatment (symbol K); conditions: application herbicide amount 320 g/ha
Outline: (§2)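 Seeds were sown in sterilized diluvial soil, covered with about 1.5 cm of soil, and the soil surface was sprayed with a water-diluted emulsion of the compound at a predetermined rate. Plants grew in a greenhouse at 25° C. to 30° C.; effects were scored visually 3 weeks after application.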

[3] = tested on: Scirpus juncoides; assay: Test Example 2: herbicidal activity, application during weed generation in submerged conditions (symbol B); conditions: Table 23; application herbicide amount 320 g/ha; grade 0-5 by criteria of Test Example 1
Outline: (§3)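 Treatment timing was the one- to two-leaf stage, with diluted emulsifiable compound dropped onto the paddy water (depth 4 cm) over alluvial soil. All three species grew from a mixed sowing in a 25° C. to 30° C. greenhouse. Injury was judged by eye 3 weeks on.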

[4] = tested on: Veronica persica; assay: Test Example 5: herbicidal effect by foliage application, plastic box (symbol R); conditions: 320 g/ha, 3 weeks after application
Outline: as §1

[5] = tested on: Digitaria ciliaris; assay: Test Example 4: herbicidal effect by soil treatment (symbol F); conditions: application herbicide amount 320 g/ha
Outline: as §2

[6] = tested on: Echinochloa oryzacola Vasing.; assay: Test Example 2: herbicidal activity, application during weed generation in submerged conditions (symbol A); conditions: Table 23; application herbicide amount 320 g/ha; grade 0-5 by criteria of Test Example 1
Outline: as §3

[7] = tested on: Leptochloa chinensis; assay: Test Example 3: herbicidal effect by foliage application, Wagner pot (symbol D); conditions: application herbicide amount 320 g/ha
Outline: (§4)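 The compound, formulated as an emulsion and diluted with water to a predetermined rate, is applied uniformly to leaves of two-week-old seedlings growing in submerged alluvial soil at 25–30 °C. Rice is included. Each plant is assessed 3 weeks later using defined criteria.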

[8] = tested on: rice plant; assay: Test Example 5: effect on crop by foliage application, plastic box (symbol b); conditions: 320 g/ha, 3 weeks after application
Outline: (§5)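 Plants were raised from seed in a greenhouse (25° C. to 30° C.) after sowing in a plastic box of sterilized diluvial soil.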

[9] = tested on: Chenopodium album; assay: Test Example 5: herbicidal effect by foliage application, plastic box (symbol O); conditions: 320 g/ha, 3 weeks after application
Outline: as §1

[10] = tested on: rapeseed; assay: Test Example 4: effect on crop by soil treatment (symbol g); conditions: application herbicide amount 320 g/ha
Outline: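 Crop seeds, among them rice, wheat, beet and rapeseed, were sown in sterilized diluvial soil and covered with about 1.5 cm of soil. Boxes were kept in a greenhouse at 25° C. to 30° C. for plant growth.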

[11] = tested on: Avena fatua; assay: Test Example 5: herbicidal effect by foliage application, plastic box (symbol I); conditions: 320 g/ha, 3 weeks after application
Outline: as §1

[12] = tested on: Amaranthus retroflexus; assay: Test Example 4: herbicidal effect by soil treatment (symbol N); conditions: application herbicide amount 320 g/ha
Outline: as §2

[13] = tested on: Echinochloa crus-galli var. crus-galli; assay: Test Example 4: herbicidal effect by soil treatment (symbol H); conditions: application herbicide amount 320 g/ha
Outline: as §2

[14] = tested on: Echinochloa crus-galli var. crus-galli; assay: Test Example 3: herbicidal effect by foliage application, Wagner pot (symbol H); conditions: application herbicide amount 320 g/ha
Outline: as §4

[15] = tested on: Amaranthus retroflexus; assay: Test Example 5: herbicidal effect by foliage application, plastic box (symbol N); conditions: 320 g/ha, 3 weeks after application
Outline: as §1

[16] = tested on: Abutilon theophrasti; assay: Test Example 4: herbicidal effect by soil treatment (symbol M); conditions: application herbicide amount 320 g/ha
Outline: as §2

[17] = tested on: beet; assay: Test Example 5: effect on crop by foliage application, plastic box (symbol f); conditions: 320 g/ha, 3 weeks after application
Outline: as §5

[18] = tested on: Stellaria media; assay: Test Example 5: herbicidal effect by foliage application, plastic box (symbol P); conditions: 320 g/ha, 3 weeks after application
Outline: as §1

[19] = tested on: Apera spica-venti; assay: Test Example 4: herbicidal effect by soil treatment (symbol L); conditions: application herbicide amount 320 g/ha
Outline: as §2

[20] = tested on: wheat; assay: Test Example 5: effect on crop by foliage application, plastic box (symbol e); conditions: 320 g/ha, 3 weeks after application
Outline: as §5

SMILES | F: Digitaria ciliaris, herbicidal effect grade [1] | K: Lolium multiflorum Lam., herbicidal effect grade [2] | Herbicidal effect grade, B: Scirpus juncoides [3] | R: Veronica persica, herbicidal effect grade [4] | F: Digitaria ciliaris, herbicidal effect grade [5] | Herbicidal effect grade, A: Echinochloa oryzacola Vasing. [6] | herbicidal effect on D (Leptochloa chinensis), grade 0-5 [7] | b: directly sowed rice plant, effect on crop grade [8] | O: Chenopodium album, herbicidal effect grade [9] | g: rapeseed, effect on crop grade [10] | I: Avena fatua, herbicidal effect grade [11] | N: Amaranthus retroflexus, herbicidal effect grade [12] | H: Echinochloa crus-galli var. crus-galli, herbicidal effect grade [13] | herbicidal effect on H (Echinochloa crus-galli var. crus-galli), grade 0-5 [14] | N: Amaranthus retroflexus, herbicidal effect grade [15] | M: Abutilon theophrasti, herbicidal effect grade [16] | f: beet, effect on crop grade [17] | P: Stellaria media, herbicidal effect grade [18] | L: Apera spica-venti, herbicidal effect grade [19] | e: wheat, effect on crop grade [20]
Cc1cc(C)c(C2=C(O)CC(CC(=O)C(C)(C)C)C2=O)c(C)c1 (stereo not drawn) [2-022] | 0 (Herbicidal ratio of 5% or lower (almost no effect)) | 4 (Herbicidal ratio of 70% or higher and lower than 90%) | 0 (Herbicidal ratio of 5% or lower (almost no effect)) | 0 (Herbicidal ratio of 5% or lower (almost no effect)) | 0 (Herbicidal ratio of 5% or lower (almost no effect)) | 1 (Herbicidal ratio of 5% or higher and lower than 20%) | 4 (Herbicidal ratio of 70% or higher and lower than 90%) | 5 (Herbicidal ratio of 90% or more (almost completely withered)) | 0 (Herbicidal ratio of 5% or lower (almost no effect)) | 0 (Herbicidal ratio of 5% or lower (almost no effect)) | 0 (Herbicidal ratio of 5% or lower (almost no effect)) | 0 (Herbicidal ratio of 5% or lower (almost no effect)) | 0 (Herbicidal ratio of 5% or lower (almost no effect)) | 1 (Herbicidal ratio of 5% or higher and lower than 20%) | 0 (Herbicidal ratio of 5% or lower (almost no effect)) | 0 (Herbicidal ratio of 5% or lower (almost no effect)) | 0 (Herbicidal ratio of 5% or lower (almost no effect)) | 0 (Herbicidal ratio of 5% or lower (almost no effect)) | 0 (Herbicidal ratio of 5% or lower (almost no effect)) | 0 (Herbicidal ratio of 5% or lower (almost no effect))
CCC(C)C(=O)CC1CC(O)=C(c2c(C)cc(C)cc2C)C1=O (stereo not drawn) [2-024] | 4 (Herbicidal ratio of 70% or higher and lower than 90%) | 0 (Herbicidal ratio of 5% or lower (almost no effect)) | 0 (Herbicidal ratio of 5% or lower (almost no effect)) | 2 (Herbicidal ratio of 20% or higher and lower than 40%) | 5 (Herbicidal ratio of 90% or more (almost completely withered)) | 1 (Herbicidal ratio of 5% or higher and lower than 20%) | 3 (Herbicidal ratio of 40% or higher and lower than 70%) | 5 (Herbicidal ratio of 90% or more (almost completely withered)) | 0 (Herbicidal ratio of 5% or lower (almost no effect)) | 0 (Herbicidal ratio of 5% or lower (almost no effect)) | 2 (Herbicidal ratio of 20% or higher and lower than 40%) | 0 (Herbicidal ratio of 5% or lower (almost no effect)) | 4 (Herbicidal ratio of 70% or higher and lower than 90%) | 5 (Herbicidal ratio of 90% or more (almost completely withered)) | 0 (Herbicidal ratio of 5% or lower (almost no effect)) | 0 (Herbicidal ratio of 5% or lower (almost no effect)) | 0 (Herbicidal ratio of 5% or lower (almost no effect)) | 0 (Herbicidal ratio of 5% or lower (almost no effect)) | 0 (Herbicidal ratio of 5% or lower (almost no effect)) | 0 (Herbicidal ratio of 5% or lower (almost no effect))
Cc1cc(C)c(C2=C(O)CC(CC(=O)CC3CC3)C2=O)c(C)c1 (stereo not drawn) [2-026] | 4 (Herbicidal ratio of 70% or higher and lower than 90%) | 5 (Herbicidal ratio of 90% or more (almost completely withered)) | 3 (Herbicidal ratio of 40% or higher and lower than 70%) | 0 (Herbicidal ratio of 5% or lower (almost no effect)) | 5 (Herbicidal ratio of 90% or more (almost completely withered)) | 4 (Herbicidal ratio of 70% or higher and lower than 90%) | 4 (Herbicidal ratio of 70% or higher and lower than 90%) | 5 (Herbicidal ratio of 90% or more (almost completely withered)) | 0 (Herbicidal ratio of 5% or lower (almost no effect)) | 4 (Herbicidal ratio of 70% or higher and lower than 90%) | 4 (Herbicidal ratio of 70% or higher and lower than 90%) | 0 (Herbicidal ratio of 5% or lower (almost no effect)) | 5 (Herbicidal ratio of 90% or more (almost completely withered)) | 5 (Herbicidal ratio of 90% or more (almost completely withered)) | 0 (Herbicidal ratio of 5% or lower (almost no effect)) | 0 (Herbicidal ratio of 5% or lower (almost no effect)) | 0 (Herbicidal ratio of 5% or lower (almost no effect)) | 0 (Herbicidal ratio of 5% or lower (almost no effect)) | 2 (Herbicidal ratio of 20% or higher and lower than 40%) | 0 (Herbicidal ratio of 5% or lower (almost no effect))
